Assay results taken from US9278958B2, “Anti-cancer compounds” (KATHOLIEKE UNIVERSITEIT LEUVEN, priority 2012, dated 2016).
Where two headings read alike, the source gives them in different places.

What was measured:
[1] = test system: U937, human monocytic cells; experiment: Cytostatic assay, U937; format: cell-based; conditions: U-937, Table 2
Method: (§1) To each well of a 96-well microtiter plate were added 5-7.5×10^4 cells and a given amount of the test compound. The cells were allowed to proliferate for 48 h to 96 h (depending on the nature of the cell line) at 37° C. in a humidified CO2-controlled atmosphere. At the end of the incubation period, the cells were counted in a Coulter Counter (Coulter Electronics Ltd, Harpenden Herts, United Kingdom).

Huh-7 hepatoma cells = experiment: Cytostatic assay, Huh-7; format: cell-based; conditions: Homo sapiens, Table 4
Method: as §1

[2] = test system: DNA synthesis in Raji cells; experiment: Antimetabolic activity assay, [CH3-3H]dThd incorporation (DNA synthesis), Raji; format: cell-based; conditions: Homo sapiens, incorporation into TCA-insoluble material
Method: [The procedure below names another cell line; the source lists this cell line under the same test.] (§2) Radiolabeled precursors of DNA synthesis ([^3H-methyl]dThd), RNA synthesis ([5-^3H]Urd), and protein synthesis ([4,5-^3H]leu) were added to 10^5 CEM cell cultures in the 200 μl-wells of a microtiter plate at 1 μCi for each precursor in the presence of varying concentrations of the test compounds (5-fold dilution series). The cells were allowed to proliferate for 20 hrs at 37° C. in a humidified, CO2-controlled atmosphere. At the end of the incubation period, the contents of the wells were brought onto 25-mm glass fiber filters and further processed for measurement of acid-insoluble radioactivity.

CEM cells = experiment: Cytostatic assay, CEM; format: cell-based; conditions: Homo sapiens, CCRF-CEM
Outline: (§3)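 A density of 5-7.5×10^4 cells per well is treated with compound. Incubation lasts 48 h to 96 h according to cell type, in humidified, CO2-controlled conditions at 37° C, after which cells are enumerated electronically.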

Molt4/C8 cells = experiment: Cytostatic assay, Molt4/C8; format: cell-based; conditions: Table 2
Method: as §1

[3] = test system: THP-1, human monocytic cells; experiment: Cytostatic assay, THP-1; format: cell-based; conditions: Table 2
Method: as §1

[4] = test system: RNA synthesis in Raji cells; experiment: Antimetabolic activity assay, [5-3H]uridine incorporation (RNA synthesis), Raji; format: cell-based; conditions: Homo sapiens, incorporation into TCA-insoluble material
Method: [The procedure below names another cell line; the source lists this cell line under the same test.] as §2

MT-4 cells = experiment: Cytostatic assay, MT-4; format: cell-based; conditions: Homo sapiens, MT4; Table 2
Method: as §1

[5] = test system: HT29 colorectal carcinoma cells; experiment: Cytostatic assay, HT29; format: cell-based; conditions: Homo sapiens, HT-29; Table 3
Method: as §1

[6] = test system: MCF-7 mammary carcinoma cells; experiment: Cytostatic assay, MCF-7; format: cell-based; conditions: Homo sapiens, MCF7; Table 3
Method: as §1

[7] = test system: FM3A mammary carcinoma cells; experiment: Cytostatic assay, FM3A; format: cell-based, murine; conditions: Mus musculus, Table 3
Method: as §1

[8] = test system: BAEC aortic endothelial cells; experiment: Cytostatic assay, BAEC; format: cell-based, bovine; conditions: Bos taurus, Table 3
Method: as §1

C8166 cells = experiment: Cytostatic assay, C8166; format: cell-based; conditions: Homo sapiens, Table 2
Method: as §1

Sup T1 cells = experiment: Cytostatic assay, Sup T1; format: cell-based; conditions: Homo sapiens, Table 2, read-out: Cytostatic activity (μM) Sup T 1
Method: as §1

BPH-1 (UZ) = experiment: Cytostatic assay, BPH-1 (UZ); format: cell-based; conditions: Homo sapiens, Table 4
Method: as §1

[9] = test system: Caki-1 kidney carcinoma cells; experiment: Cytostatic assay, Caki-1; format: cell-based; conditions: Homo sapiens, Table 3
Method: as §1

[10] = test system: PC3 (rega) prostate cancer cells; experiment: Cytostatic assay, PC3 (rega); format: cell-based; conditions: Table 4
Method: as §1

[11] = test system: PNT1A (UZ) prostate cells; experiment: Cytostatic assay, PNT1A (UZ); format: cell-based; conditions: Homo sapiens, Table 4
Method: as §1

[12] = test system: HL60, human leukemia cells; experiment: Cytostatic assay, HL-60; format: cell-based; conditions: Table 2
Method: as §1

[13] = test system: DNA synthesis in CEM cells; experiment: Antimetabolic activity assay, [CH3-3H]dThd incorporation (DNA synthesis), CEM; format: cell-based; conditions: Homo sapiens, CCRF-CEM, incorporation into TCA-insoluble material
Method: as §2

[14] = test system: OST TK- osteosarcoma cells; experiment: Cytostatic assay, OST TK-; format: cell-based; conditions: Homo sapiens; Table 3
Method: as §1

[15] = test system: protein synthesis in Raji cells; experiment: Antimetabolic activity assay, [4,5-3H]leucine incorporation (protein synthesis), Raji; format: cell-based; conditions: Homo sapiens, incorporation into TCA-insoluble material
Method: [The procedure below names another cell line; the source lists this cell line under the same test.] as §2

[16] = test system: HEL embryonic lung fibroblast cells; experiment: Cytostatic assay, HEL; format: cell-based; conditions: Homo sapiens, Table 3
Method: as §1

[17] = test system: 22Rv1 (UZ) prostate cancer cells; experiment: Cytostatic assay, 22Rv1 (UZ); format: cell-based; conditions: Homo sapiens, Table 4
Method: as §1

[18] = test system: Raji, human B-lymphoma cells; experiment: Cytostatic assay, Raji; format: cell-based; conditions: Table 2
Method: as §1

U87 glioma cells = experiment: Cytostatic assay, U87; format: cell-based; conditions: Homo sapiens, U-87 MG; Table 3
Method: as §1

[19] = test system: LNCaP (UZ) prostate cancer cells; experiment: Cytostatic assay, LNCaP (UZ); format: cell-based; conditions: Homo sapiens, Table 4
Method: as §1

[20] = test system: PC-3 (UZ) prostate cancer cells; experiment: Cytostatic assay, PC-3 (UZ); format: cell-based; conditions: Table 4
Method: as §1

PLC/PRF/5 hepatoma cells = experiment: Cytostatic assay, PLC/PRF/5; format: cell-based; conditions: Homo sapiens, Table 4
Method: as §1

L1210 cells = experiment: Cytostatic assay, L1210; format: cell-based; conditions: Mus musculus, Table 2
Method: as §1

HUT-78 cells = experiment: Cytostatic assay, HUT-78; format: cell-based; conditions: Homo sapiens, HuT78; Table 2
Method: as §1

[21] = test system: 293T embryonic kidney cells; experiment: Cytostatic assay, 293T; format: cell-based; conditions: Homo sapiens, HEK-293T; Table 3
Method: as §1

[22] = test system: HeLa cervix carcinoma cells; experiment: Cytostatic assay, HeLa; format: cell-based, human; conditions: Homo sapiens; Table 3; read-out: Cytostatic activity (μM) Hela
Outline: as §3

[23] = test system: protein synthesis in CEM cells; experiment: Antimetabolic activity assay, [4,5-3H]leucine incorporation (protein synthesis), CEM; format: cell-based; conditions: Homo sapiens, CCRF-CEM, incorporation into TCA-insoluble material
Method: as §2

[24] = test system: DU145 (UZ) prostate cancer cells; experiment: Cytostatic assay, DU145 (UZ); format: cell-based; conditions: Homo sapiens, DU-145; Table 4
Method: as §1

HepG2C3A hepatoma cells = experiment: Cytostatic assay, HepG2C3A; format: cell-based; conditions: Homo sapiens, HepG2/C3A; Table 4
Method: as §1

[25] = test system: Caki-2 kidney carcinoma cells; experiment: Cytostatic assay, Caki-2; format: cell-based; conditions: Homo sapiens, Table 3
Method: as §1

[26] = test system: RNA synthesis in CEM cells; experiment: Antimetabolic activity assay, [5-3H]uridine incorporation (RNA synthesis), CEM; format: cell-based; conditions: Homo sapiens, CCRF-CEM, incorporation into TCA-insoluble material
Method: as §2

MT-2 cells = experiment: Cytostatic assay, MT-2; format: cell-based; conditions: Homo sapiens, MT2; Table 2
Method: as §1

[27] = Table 2, read-out: Cytostatic activity (μM) CEM

| IC50 [1] [µM] | IC50 (Huh-7 hepatoma cells) [µM] | IC50 [2] [µM] | IC50 (CEM cells; [27]) [µM] | IC50 (Molt4/C8 cells) [µM] | IC50 [3] [µM] | IC50 [4] [µM] | IC50 [5] [µM] | IC50 [6] [µM] | IC50 [7] [µM] | IC50 [8] [µM] | IC50 (C8166 cells) [µM] | IC50 (Sup T1 cells) [µM] | IC50 (BPH-1 (UZ)) [µM] | IC50 [9] [µM] | IC50 [10] [µM] | IC50 [11] [µM] | IC50 [12] [µM] | IC50 [13] [µM] | SMILES | IC50 (MT-4 cells) [µM] | other results |
| --- | --- | --- | --- | --- | --- | --- | --- | --- | --- | --- | --- | --- | --- | --- | --- | --- | --- | --- | --- | --- | --- |
| 115 ± 19 | > 100 | ≥ 100 | 40 ± 1 | 18 ± 2.1 | 102 ± 2.8 | 82 ± 26 | 93 ± 11 | 81 ± 4.9 | 49 ± 6 | 74 ± 26 | 102 ± 16 | 86 ± 7.1 | 36 ± 1.4 | 83 ± 36 | 13 ± 9.6 | 42 ± 5.7 | 62 ± 9.9 | 15 ± 3 | CCOC(=O)c1cc(-c2ccc(OC)cc2)sc1N [TR525, 2-Amino-5-(4-methoxy-phenyl)-thiophene-3-carboxylic acid ethyl ester] | > 100 | IC50 (CEM cells; Table 1a, read-out: IC50 μM (CEM)): 40 µM; IC50 [14]: 79 ± 2.8 µM; IC50 [15]: ≥ 100 µM; IC50 [16]: 43 ± 9.9 µM; IC50 [17]: 16 ± 5.5 µM; IC50 [18]: > 100 µM; IC50 (U87 glioma cells): 90 ± 14 µM; IC50 [19]: 2.3 ± 0.071 µM; IC50 [20]: 20 ± 3.5 µM; IC50 (PLC/PRF/5 hepatoma cells): > 100 µM; IC50 (L1210 cells): 44 ± 3 µM; IC50 (HUT-78 cells): 117 ± 21 µM; IC50 [21]: > 100 µM; IC50 [22]: 39 ± 4 µM; IC50 [23]: 6.2 ± 7.6 µM; IC50 [24]: 41 ± 24 µM; IC50 (HepG2C3A hepatoma cells): > 100 µM; IC50 [25]: 159 ± 19 µM; IC50 [26]: 12 ± 5 µM; IC50 (MT-2 cells): 52 ± 5.7 µM |
| 80 ± 5.7 | 28 ± 17 | ≥ 100 | 20 ± 4 | 6.8 | 31 ± 13 | ≥ 100 | > 100 | 60 ± 0.7 | 53 ± 7 | > 100 | 143 ± 32 | 23 ± 2.1 | 74 ± 4.2 | 62 ± 12 | 8.6 ± 3.4 | 45 | 11 ± 2.2 | 68 ± 14 | CCOC(=O)c1cc(CCc2ccccc2OC)sc1N [TR542, 2-Amino-5-[2-(2-methoxy-phenyl)-ethyl]-thiophene-3-carboxylic acid ethyl ester] | 41 ± 5.7 | IC50 [14]: 41 ± 0.71 µM; IC50 [15]: 94 ± 7 µM; IC50 [16]: 43 ± 4.9 µM; IC50 [17]: 33 ± 0.71 µM; IC50 [18]: 55 ± 12 µM; IC50 (U87 glioma cells): > 100 µM; IC50 [19]: 3.8 ± 2.9 µM; IC50 [20]: 8.5 ± 3.5 µM; IC50 (PLC/PRF/5 hepatoma cells): 39 ± 5.7 µM; IC50 (L1210 cells): 40 µM; IC50 (HUT-78 cells): 107 ± 70 µM; IC50 [21]: > 100 µM; IC50 [22]: 45 ± 6 µM; IC50 [23]: 23 ± 14 µM; IC50 [24]: 34 ± 7.1 µM; IC50 (HepG2C3A hepatoma cells): 30 ± 0.71 µM; IC50 [25]: 16 ± 10 µM; IC50 [26]: 39 ± 32 µM; IC50 (MT-2 cells): 79 ± 17 µM |
